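GI50 is the concentration that inhibits growth by half. TGI denotes the concentration required for complete inhibition of growth.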
Key:
Assay in all cases: DTP human tumour cell line panel, 384-well format
786-0 renal = tested on: 786-0 renal
A498 renal = tested on: A498 renal
A549 NSCLC = tested on: A549 NSCLC
ACHN renal = tested on: ACHN renal
BT-549 breast = tested on: BT-549 breast
CAKI-1 renal = tested on: CAKI-1 renal
CCRF-CEM leukemia = tested on: CCRF-CEM leukemia
COLO 205 colon = tested on: COLO 205 colon
DU-145 prostate = tested on: DU-145 prostate
EKVX NSCLC = tested on: EKVX NSCLC
HCC-2998 colon = tested on: HCC-2998 colon
HCT-15 colon = tested on: HCT-15 colon
HL-60(TB) leukemia = tested on: HL-60(TB) leukemia
HOP-62 NSCLC = tested on: HOP-62 NSCLC
HOP-92 NSCLC = tested on: HOP-92 NSCLC
HS 578T breast = tested on: HS 578T breast
HT29 colon = tested on: HT29 colon
IGROV1 ovarian = tested on: IGROV1 ovarian
K-562 leukemia = tested on: K-562 leukemia
KM12 colon = tested on: KM12 colon
LOX IMVI melanoma = tested on: LOX IMVI melanoma
M14 melanoma = tested on: M14 melanoma
MALME-3M melanoma = tested on: MALME-3M melanoma
MCF7 breast = tested on: MCF7 breast
MDA-MB-231 breast = tested on: MDA-MB-231 breast
MDA-MB-435 melanoma = tested on: MDA-MB-435 melanoma
MDA-MB-468 breast = tested on: MDA-MB-468 breast
MOLT-4 leukemia = tested on: MOLT-4 leukemia
NCI-H226 lung = tested on: NCI-H226 lung
NCI-H23 lung = tested on: NCI-H23 lung
NCI-H322M lung = tested on: NCI-H322M lung
NCI-H460 NSCLC = tested on: NCI-H460 NSCLC
NCI-H522 lung = tested on: NCI-H522 lung
NCI/ADR-RES ovarian = tested on: NCI/ADR-RES ovarian
OVCAR-3 ovarian = tested on: OVCAR-3 ovarian
OVCAR-4 ovarian = tested on: OVCAR-4 ovarian
OVCAR-5 ovarian = tested on: OVCAR-5 ovarian
OVCAR-8 ovarian = tested on: OVCAR-8 ovarian
PC-3 prostate = tested on: PC-3 prostate
RPMI-8226 leukemia = tested on: RPMI-8226 leukemia
RXF 393 renal = tested on: RXF 393 renal
SF-268 CNS = tested on: SF-268 CNS
SF-295 CNS = tested on: SF-295 CNS
SF-539 CNS = tested on: SF-539 CNS
SK-MEL-28 melanoma = tested on: SK-MEL-28 melanoma
SK-MEL-5 melanoma = tested on: SK-MEL-5 melanoma
SK-OV-3 ovarian = tested on: SK-OV-3 ovarian
SN12C renal = tested on: SN12C renal
SNB-19 CNS = tested on: SNB-19 CNS
SNB-75 CNS = tested on: SNB-75 CNS
SR leukemia = tested on: SR leukemia
SW-620 colon = tested on: SW-620 colon
T-47D breast = tested on: T-47D breast
TK-10 renal = tested on: TK-10 renal
UACC-257 melanoma = tested on: UACC-257 melanoma
UACC-62 melanoma = tested on: UACC-62 melanoma
UO-31 renal = tested on: UO-31 renal

Structure (SMILES): C[C@@H]1OCC2(CCN(c3cnc(Sc4ccnc(N)c4Cl)c(N)n3)CC2)[C@@H]1N
- GI50 ([…]-0 renal): > 100 µM
- TGI (786-0 renal): > 100 µM
- GI50 (A498 renal): 4.18 µM
- TGI (A498 renal): > 100 µM
- GI50 (A549 NSCLC): > 100 µM
- TGI (A549 NSCLC): > 100 µM
- GI50 (ACHN renal): 4.99 µM
- TGI (ACHN renal): > 100 µM
- GI50 (BT-549 breast): 35.1 µM
- TGI (BT-549 breast): > 100 µM
- GI50 (CAKI-1 renal): 0.426 µM
- TGI (CAKI-1 renal): > 100 µM
- GI50 (CCRF-CEM leukemia): 32 µM
- TGI (CCRF-CEM leukemia): > 100 µM
- GI50 (COLO 205 colon): > 100 µM
- TGI (COLO 205 colon): > 100 µM
- GI50 (DU-145 prostate): > 100 µM
- TGI (DU-145 prostate): > 100 µM
- GI50 (EKVX NSCLC): 16.5 µM
- TGI (EKVX NSCLC): > 100 µM
- GI50 (HCC-2998 colon): > 100 µM
- TGI (HCC-2998 colon): > 100 µM
- GI50 (HCT-15 colon): > 100 µM
- TGI (HCT-15 colon): > 100 µM
- GI50 (HL-60(TB) leukemia): 65.1 µM
- TGI (HL-60(TB) leukemia): > 100 µM
- GI50 (HOP-62 NSCLC): > 100 µM
- TGI (HOP-62 NSCLC): > 100 µM
- GI50 (HOP-92 NSCLC): 0.0569 µM
- TGI (HOP-92 NSCLC): 1.05 µM
- GI50 (HS 578T breast): > 100 µM
- TGI (HS 578T breast): > 100 µM
- GI50 (HT29 colon): > 100 µM
- TGI (HT29 colon): > 100 µM
- GI50 (IGROV1 ovarian): 0.918 µM
- TGI (IGROV1 ovarian): > 100 µM
- GI50 (K-562 leukemia): 0.148 µM
- TGI (K-562 leukemia): > 100 µM
- GI50 (KM12 colon): 0.621 µM
- TGI (KM12 colon): > 100 µM
- GI50 (LOX IMVI melanoma): > 100 µM
- TGI (LOX IMVI melanoma): > 100 µM
- GI50 (M14 melanoma): > 100 µM
- TGI (M14 melanoma): > 100 µM
- GI50 (MALME-3M melanoma): > 100 µM
- TGI (MALME-3M melanoma): > 100 µM
- GI50 (MCF7 breast): > 100 µM
- TGI (MCF7 breast): > 100 µM
- GI50 (MDA-MB-231 breast): > 100 µM
- TGI (MDA-MB-231 breast): > 100 µM
- GI50 (MDA-MB-435 melanoma): > 100 µM
- TGI (MDA-MB-435 melanoma): > 100 µM
- GI50 (MDA-MB-468 breast): 0.0533 µM
- TGI (MDA-MB-468 breast): 0.355 µM
- GI50 (MOLT-4 leukemia): 35.9 µM
- TGI (MOLT-4 leukemia): > 100 µM
- GI50 (NCI-H226 lung): 1.18 µM
- TGI (NCI-H226 lung): > 100 µM
- GI50 (NCI-H23 lung): 0.0797 µM
- TGI (NCI-H23 lung): 44.2 µM
- GI50 (NCI-H322M lung): 0.234 µM
- TGI (NCI-H322M lung): > 100 µM
- GI50 (NCI-H460 NSCLC): > 100 µM
- TGI (NCI-H460 NSCLC): > 100 µM
- GI50 (NCI-H522 lung): 1.44 µM
- TGI (NCI-H522 lung): > 100 µM
- GI50 (NCI/ADR-RES ovarian): 17.7 µM
- TGI (NCI/ADR-RES ovarian): > 100 µM
- GI50 (OVCAR-3 ovarian): 77.9 µM
- TGI (OVCAR-3 ovarian): > 100 µM
- GI50 (OVCAR-4 ovarian): > 100 µM
- TGI (OVCAR-4 ovarian): > 100 µM
- GI50 (OVCAR-5 ovarian): > 100 µM
- TGI (OVCAR-5 ovarian): > 100 µM
- GI50 (OVCAR-8 ovarian): 44.3 µM
- TGI (OVCAR-8 ovarian): > 100 µM
- GI50 (PC-3 prostate): > 100 µM
- TGI (PC-3 prostate): > 100 µM
- GI50 (RPMI-8226 leukemia): 21 µM
- TGI (RPMI-8226 leukemia): > 100 µM
- GI50 (RXF 393 renal): > 100 µM
- TGI (RXF 393 renal): > 100 µM
- GI50 (SF-268 CNS): > 100 µM
- TGI (SF-268 CNS): > 100 µM
- GI50 (SF-295 CNS): > 100 µM
- TGI (SF-295 CNS): > 100 µM
- GI50 (SF-539 CNS): 34.7 µM
- TGI (SF-539 CNS): > 100 µM
- GI50 (SK-MEL-28 melanoma): > 100 µM
- TGI (SK-MEL-28 melanoma): > 100 µM
- GI50 (SK-MEL-5 melanoma): > 100 µM
- TGI (SK-MEL-5 melanoma): > 100 µM
- GI50 (SK-OV-3 ovarian): 25.2 µM
- TGI (SK-OV-3 ovarian): > 100 µM
- GI50 (SN12C renal): 3.87 µM
- TGI (SN12C renal): > 100 µM
- GI50 (SNB-19 CNS): > 100 µM
- TGI (SNB-19 CNS): > 100 µM
- GI50 (SNB-75 CNS): 51.2 µM
- TGI (SNB-75 CNS): > 100 µM
- GI50 (SR leukemia): 0.519 µM
- TGI (SR leukemia): 13.4 µM
- GI50 (SW-620 colon): > 100 µM
- TGI (SW-620 colon): > 100 µM
- GI50 (T-47D breast): 29.3 µM
- TGI (T-47D breast): > 100 µM
- GI50 (TK-10 renal): 3.58 µM
- TGI (TK-10 renal): > 100 µM
- GI50 (UACC-257 melanoma): > 100 µM
- TGI (UACC-257 melanoma): > 100 µM
- GI50 (UACC-62 melanoma): > 100 µM
- TGI (UACC-62 melanoma): > 100 µM
- GI50 (UO-31 renal): 27.6 µM
- TGI (UO-31 renal): > 100 µM
